We go through 1 compound from patent US9215868B2, “Low-foam preparations for crop protection” (Bayer Intellectual Property GmbH, priority 2006, dated 2015).

This test concerns leaves of monocotyledonous crop plants such as corn and dicotyledonous crop plants such as apples. Kind of test: Leaf penetration of water-soluble leaf fertilisers such as urea. The test is classed as in vivo. Particulars: urea 0.1 to 2% in spray liquor, in presence of 0.05 to 1% of one of the alkyl ether sulfates according to the invention; within a number of days. An excerpt:
In the case of foliar application of urea (0.1 to 2% in the spray liqour) to leaves of monocotyledonous crop plants such as corn and also to dicotyledonous crop plants such as apples, the rate of foliar uptake was increased within a number of days by a factor of at least two in the presence of 0.05 to 1% of one of the alkyl ether sulfates according to the invention.

With `NC(N)=O` [urea], the “factor of increase of rate of foliar uptake” value is on record as “at least two”.
